Results published in ChEMBL document CHEMBL1201862, “PubChem BioAssay data set” (2004).
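The compound was tested at five concentrations on cells cultured in 96-well plates, with a 48-hour exposure period. GI50 marks 50% less growth.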 The source made the active and inactive calls. Cut-off read from the data, not from the text of the source: active = GI50 up to about 1.1 µM and inactive = higher.

Columns and labels:
Test in all cases: DTP human tumour cell line panel, 48 h
RXF 393 = tested on: RXF 393
SNB-19 = tested on: SNB-19
CCRF-CEM = tested on: CCRF-CEM
RPMI-8226 = tested on: RPMI-8226
SW-620 = tested on: SW-620
UO-31 = tested on: UO-31
NCI-H460 = tested on: NCI-H460
HOP-62 = tested on: HOP-62
ACHN = tested on: ACHN
IGROV-1 = tested on: IGROV-1
SK-OV-3 = tested on: SK-OV-3
U-251 = tested on: U-251
DU-145 = tested on: DU-145
HCT-116 = tested on: HCT-116
NCI-H226 = tested on: NCI-H226
HCC 2998 = tested on: HCC 2998
UACC-62 = tested on: UACC-62
A498 = tested on: A498
NCI/ADR-RES = tested on: NCI/ADR-RES
A549 = tested on: A549
786-0 = tested on: 786-0
UACC-257 = tested on: UACC-257
OVCAR-4 = tested on: OVCAR-4
T47D = tested on: T47D
SR = tested on: SR
SF-539 = tested on: SF-539
COLO 205 = tested on: COLO 205
SK-MEL-5 = tested on: SK-MEL-5
SF-295 = tested on: SF-295
LOX IMVI = tested on: LOX IMVI
OVCAR-8 = tested on: OVCAR-8
MDA-MB-231 = tested on: MDA-MB-231
MDA-MB-435 = tested on: MDA-MB-435
HCT-15 = tested on: HCT-15
HT-29 = tested on: HT-29
KM12 = tested on: KM12
EKVX = tested on: EKVX
TK-10 = tested on: TK-10
HOP-92 = tested on: HOP-92
Malme-3M = tested on: Malme-3M
SK-MEL-28 = tested on: SK-MEL-28
NCI-H23 = tested on: NCI-H23
SF-268 = tested on: SF-268
SN12C = tested on: SN12C
MOLT-4 = tested on: MOLT-4
M14 = tested on: M14
SNB-75 = tested on: SNB-75
K562 = tested on: K562
MCF7 = tested on: MCF7
HL-60 = tested on: HL-60
OVCAR-5 = tested on: OVCAR-5

Question: What does the source list for `O=C1NC2(CCN(CCCC3(c4ccc(F)cc4)OCCO3)CC2)Oc2ccccc21`?
Answer: GI50 (RXF 393): > 100 µM (inactive); GI50 (SNB-19): > 100 µM (inactive); GI50 (CCRF-CEM): > 100 µM (inactive); GI50 (RPMI-8226): 61 µM (inactive); GI50 (SW-620): > 100 µM (inactive); GI50 (UO-31): 12.7 µM (inactive); GI50 (NCI-H460): 91.2 µM (inactive); GI50 (HOP-62): > 100 µM (inactive); GI50 (ACHN): > 100 µM (inactive); GI50 (IGROV-1): > 100 µM (inactive); GI50 (SK-OV-3): > 100 µM (inactive); GI50 (U-251): > 100 µM (inactive); GI50 (DU-145): > 100 µM (inactive); GI50 (HCT-116): > 100 µM (inactive); GI50 (NCI-H226): > 100 µM (inactive); GI50 (HCC 2998): > 100 µM (inactive); GI50 (UACC-62): > 100 µM (inactive); GI50 (A498): 21.3 µM (inactive); GI50 (NCI/ADR-RES): 97.9 µM (inactive); GI50 (A549): > 100 µM (inactive); GI50 (786-0): > 100 µM (inactive); GI50 (UACC-257): 57.3 µM (inactive); GI50 (OVCAR-4): > 100 µM (inactive); GI50 (T47D): 35.8 µM (inactive); GI50 (SR): 39.7 µM (inactive); GI50 (SF-539): 42.9 µM (inactive); GI50 (COLO 205): 86.7 µM (inactive); GI50 (SK-MEL-5): 69.5 µM (inactive); GI50 (SF-295): > 100 µM (inactive); GI50 (LOX IMVI): > 100 µM (inactive); GI50 (OVCAR-8): > 100 µM (inactive); GI50 (MDA-MB-231): > 100 µM (inactive); GI50 (MDA-MB-435): > 100 µM (inactive); GI50 (HCT-15): 71.4 µM; GI50 (HT-29): 42.4 µM (inactive); GI50 (KM12): > 100 µM (inactive); GI50 (EKVX): 39.4 µM (inactive); GI50 (TK-10): > 100 µM (inactive); GI50 (HOP-92): 23.7 µM (inactive); GI50 (Malme-3M): > 100 µM (inactive); GI50 (SK-MEL-28): > 100 µM (inactive); GI50 (NCI-H23): > 100 µM (inactive); GI50 (SF-268): > 100 µM (inactive); GI50 (SN12C): > 100 µM (inactive); GI50 (MOLT-4): 51.8 µM (inactive); GI50 (M14): 73.5 µM (inactive); GI50 (SNB-75): 43.1 µM (inactive); GI50 (K562): 64.4 µM (inactive); GI50 (MCF7): 86.7 µM (inactive); GI50 (HL-60): 42.7 µM (inactive); GI50 (OVCAR-5): > 100 µM (inactive)
